# In article PMC9369610, “Pro-Apoptotic and Pro-Autophagic Properties of Cardenolides from Aerial Parts of Pergularia tomentosa” (Molecules, 2022):
# Assays:
# Caco-2 cells = experiment: MTT cell viability assay, IC50 in Caco-2 cells; type: cell-based; details: Homo sapiens, 24 h, SE less than 10% of value
# Experimental: (§1) The human liver hepatocellular carcinoma cell line, HepG2, and the human adenocarcinoma of colon cell line, Caco-2, were cultured in Eagle’s Minimum Essential medium supplemented with 1% (v/v) non-essential amino acids, 0.2 mM L-glutamine, 50 units/mL penicillin, 50 μg/mL streptomycin and 10% (v/v) or 20% (v/v) fetal bovine serum (Sigma Aldrich, Milan, Italy) for HepG2 or Caco-2, respectively. The human embryonal lung fibroblast cell line, MRC5, was cultured in Dulbecco’s Modified Eagle medium (Sigma Aldrich, Milan, Italy) supplemented with 10% (v/v) fetal bovine serum, 0.2 mM L-glutamine, 50 units/mL penicillin and 50 μg/mL streptomycin. HUVEC cells were cultured in endothelial growth medium-2, supplemented with fetal bovine serum (2%), VEGF (0.1%), rH FGF-B (0.4%), rH EGF (0.1%), GA-1000 (0.1%), hydrocortisone (0.04%), R3-IGF-1 (0.1%), heparin (0.1%) and ascorbic acid (0.1%). Cells were maintained at 37 °C in a 5% CO2, 95% air-humidified atmosphere and passaged twice a week. Cell lines were obtained from Interlab Cell Line Collection, Istituto Nazionale per la Ricerca sul Cancro, Genoa, Italy. HUVEC were obtained from Lonza (Milan, Italy).
# (§2) An MTT assay was used to analyse cell viability. Cells were seeded in 96 wells at the density of 2 × 10^4/cm^2 and, after 24 h, they were treated with P. tomentosa compounds or with the vehicle (DMSO). After a further 24 h of treatment, 0.5 mg/mL of MTT was added to the cell medium and incubated for 1.5 h at 37 °C. The resulting formazan crystals were dissolved in 100 μL of DMSO and absorbances were measured at 595 nm and 655 nm. The background signals at 655 nm were subtracted from 595 nm signals, and data were expressed as a percent of cell viability. The concentration of each compound that is required for 50% inhibition in vitro (IC50) was calculated as described in Husseini et al.. IC50 values were obtained for Caco-2, HepG2 and MRC5 cells by performing MTT assays with concentrations ranging from 0.01 μg/mL to 5 μg/mL.
# HepG2 cells [1] = experiment: MTT cell viability assay, IC50 in HepG2 cells; type: cell-based; details: Homo sapiens, 24 h, SE less than 10% of value
# Experimental: as §1, §2
# [2] = test system: HepG2, Caco-2, MRC5 and HUVEC cells; experiment: MTT assay, comparison of cytotoxic effects at 1 μM on four cell types; type: cell-based, human; details: 24 h, Caco-2, HepG2, MRC5, HUVEC
# Excerpt: We focused attention on 12β,6′-dihydroxycalotropin (1), 16α-hydroxycalotropin (2), 12β-hydroxycalactin (3), calotropin (4), and calactin (5), among those described by Hosseini et al., and tested their cytotoxic activity by a 3-(4,5-dime-thylthiazol-2-yl)-2,5-diphenylte-tetrazolium bromide (MTT) assay on two cancer cell lines (HepG2 and Caco-2), not previously employed, on an immortalised nontumoral cell line (MRC5) and normal primary cells (HUVEC).
# Figure 2 Comparison of cytotoxic effects of P. tomentosa compounds on cancer cell lines (Caco-2 and HepG2), on an immortalised cell line (MRC5) and normal cells (HUVEC). Cells were treated for 24 h with 1 μM of each compound. Residual viability was measured by the MTT assay. Values are the means ± standard error (SE) of three independent experiments performed in triplicate. Statistical analysis was performed using the Student’s t-test. * p < 0.05 and ** p < 0.01 vs. cells treated with the vehicle (DMSO).
# as §1, §2
# p53 in HepG2 cells = experiment: Western blot analysis of p53 expression; type: cell-based, human; details: HepG2, 1 μM, 24 h
# Experimental: (§3) To analyse the protein levels of p53, caspase-3, GRP78, LC3 and p62, HepG2 cells were treated with P. tomentosa compounds (1 or 2 μM) or with DMSO for the indicated times; then, Western blot analyses were performed. Briefly, cells were lysed in RIPA buffer (20 mM Tris-HCl, pH 7.5, 150 mM NaCl, 1 mM EDTA, 1 mM dithiothreitol, 0.1% sodium dodecyl sulphate, 1% triton X-100, 1 mM orthovanadate, and a cocktail of inhibitors (Sigma-Aldrich, Milan, Italy)). After separation on a sodium dodecyl sulphate-polyacrylamide gel electrophoresis and transfer to a poly-vinylidene fluoride membrane (Euroclone, Milan, Italy), the following primary antibodies were used, at a dilution of 1:1000 in tris-buffered saline containing 1% non-fat dry milk, overnight at 4 °C: mouse anti-p53 antibody, mouse anti-MAP LC3 β antibody, mouse anti-p62 antibody (DBA, Milan, Italy), mouse anti-GRP78 antibody, and mouse anti-caspase 3 antibody (Thermo Fisher Scientific, Milan, Italy). For normalisation, a mouse anti-GAPDH antibody (Microtech, Naples, Italy) was used.
# HepG2 cells [3] = experiment: Scratch-wound-healing assay; type: cell-based, human; details: HepG2, 1 μM, 24, 48 and 72 h
# Experimental: Cells were seeded at a density of 5 × 10^4 cells/well in 24-well plates and allowed to grow for 72 h, reaching confluence. Mitomycin C (10 μg/mL) was added to inhibit proliferation, and then a sterile 2–10 μL pipette tip was used to perform a vertical scratch in the monolayer of each well. Detached cells were removed by washing with phosphate-buffered saline. Then, 300 μL of fresh medium containing P. tomentosa compounds (1 μM) or vehicle was added to each well and incubated for 72 h. Images of migrating cells were taken at 0, 24, 48 and 72 h, by using an Olympus CKX41 fluorescent microscope (Olympus Italia srl, Segrate, Italy) and elaborated by the ImageJ software. For each scratch, wound width was calculated as the average distance between the edges in four different sites. Then, reductions in wound wights at 24, 48 and 72 h were expressed as % of the width at time zero.
# caspase-3 in HepG2 cells = experiment: Western blot of cleaved caspase-3; type: cell-based, human; details: HepG2, 2 μM, 7 h, Western blot densitometry
# Experimental: as §3
# HepG2 cells [4] = experiment: TUNEL assay; type: cell-based, human; details: HepG2, 1 μM, 24 h
# Experimental: Microscopic evaluation of apoptosis was performed by a TUNEL assay, using a commercial kit (Fragment End Labelling (FragEL™), […]) DNA Fragmentation Detection Kit, Sigma-Aldrich, Milan, Italy) according to the manufacturer-provided protocol, with some modifications. Briefly, cells were seeded on glass cover slips placed in 24-well plates at a density of 3.5 × 10^3/cm^2 and, after 48 h, they were treated with 1 μΜ of each compound for a further 24 h. Cells were fixed in 3% paraformaldehyde for 10 min, permeabilised in 0.2% Triton X-100 for 5 min and treated with HCl 1.5 N for 8 min. Finally, cover slips were equilibrated in equilibration buffer (10 min) and incubated with label mix containing the TdT enzyme for 1 h at 37 °C, then mounted with mounting media. Microscope observations were performed by the AxioSkop 40 fluorescent microscope. Images were acquired with Axiocam MRc5 (Carl Zeiss MicroImaging, Inc., Jena, Germany).
# LC3 in HepG2 cells = experiment: Western blot of LC3 (LC3-I and LC3-II); type: cell-based, human; details: HepG2, 1 μM, 24 h
# Experimental: as §3
smiles,measurement,setting,value
"C[C@@H]1C[C@@H](O)[C@]2(O)O[C@@H]3C[C@@]4(C=O)[C@@H](CC[C@@H]5[C@@H]4CC[C@]4(C)[C@@H](C6=CC(=O)OC6)CC[C@]54O)C[C@H]3O[C@@H]2O1 [Compound 5, calactin]",IC50,Caco-2 cells,650 nM
same,IC50,HepG2 cells [1],127 nM
same,"relative cytotoxicity (residual viability, MTT)",[2],most cytotoxic
same,p53 protein level,p53 in HepG2 cells,clearly decreased the p53 amount
same,effect on wound closure,HepG2 cells [3],interfered with the wound closure after 48 and 72 h
same,cleaved caspase-3 (caspase-3 activation),caspase-3 in HepG2 cells,most active
same,apoptotic nuclei (TUNEL),HepG2 cells [4],occurrence of apoptotic nuclei
same,LC3-I level,LC3 in HepG2 cells,reduction in the LC3-I form
same,LC3-II level,LC3 in HepG2 cells,more marked
